Assay [1] addresses T1, human recombinant thioredoxin reductase (Homo sapiens, UniProt Q16881).
T1 construct: purchased SIGMA SRP6081
T1 sequence (Q16881 151-649 limits assumed): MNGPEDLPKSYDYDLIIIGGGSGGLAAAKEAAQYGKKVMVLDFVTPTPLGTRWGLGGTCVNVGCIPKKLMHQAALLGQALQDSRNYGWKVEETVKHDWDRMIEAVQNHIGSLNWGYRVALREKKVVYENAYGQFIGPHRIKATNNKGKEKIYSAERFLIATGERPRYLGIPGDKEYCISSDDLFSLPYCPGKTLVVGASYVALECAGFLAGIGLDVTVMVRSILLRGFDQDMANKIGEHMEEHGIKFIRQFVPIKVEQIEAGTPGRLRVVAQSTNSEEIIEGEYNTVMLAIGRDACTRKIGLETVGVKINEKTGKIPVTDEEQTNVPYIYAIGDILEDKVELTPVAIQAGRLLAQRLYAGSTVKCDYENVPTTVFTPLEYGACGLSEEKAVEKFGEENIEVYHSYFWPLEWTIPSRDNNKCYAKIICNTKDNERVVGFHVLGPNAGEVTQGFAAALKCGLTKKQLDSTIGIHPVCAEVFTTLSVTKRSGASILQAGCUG
As to the kind of experiment: Recombinant human TrxR activity (DTNB). The format is biochemical. Particulars: 40 μM of complex; p > 0.05. Here is the method:
A measurement of human recombinant thioredoxin reductase was performed as previously described by Quero et al.. Briefly, gold complex was dissolved in DMSO at the desired concentrations and was incubated for 45 min with recombinant human TrxR (SIGMA SRP6081) at 37 °C in a 96 well plate. 25 μL of reaction mix, composed by 500 μL PBS pH 7.4, 80 μL 100 mM EDTA pH 7.5, 20 μL 0.05% BSA, 20 mM 100 μL NADPH, and 300 μL distilled H2O, was then added to each well. 25 μL of 20 mM 5,5′-dithiobis(2-nitrobenzoic acid) (DNTB), dissolved in 100% EtOH, were added to start the reaction and changes in absorbance at 405 nm were monitored every 10 s for 6 min. For comparison purposes, the activity of recombinant TrxR in presence of DMSO was used as negative control.

The next assay deals with E. coli. In words: Scanning electron microscopy of treated E. coli. Particulars: E. coli treated at 1/2× MIC and MIC, 24 h. The format is cell-based. How it is done: 500 μL of a E. coli culture (10^7 CFU mL^−^1) were added per well to a 12-well plate and were further treated with the complex 1b at its MIC and 1/2× MIC. A positive control of bacteria without any treatment and a negative control of only culture medium were included, following the same protocol as the rest of the conditions. Then, the plate was incubated at 37 °C with mild agitation for 24 h. After this time, the bacterial suspensions were transfered into 1.5 mL centrifugation tubes. Then, the bacteria were washed and fixed using glutaraldehyde 2.5% in phosphate buffer 10 mM at pH 7.2, with 2 h incubation. Then, bacteria were gradually dehydrated using EtOH solutions at different v/v% (25, 50, 75 and 100). 10 µL of the dehydrated bacteria solution was placed on a 5 × 5 mm Si waffle, left to dry and coated with a thin layer of carbon.

Assay [2] relates to panel of Gram-positive and Gram-negative strains. In words: Disk diffusion method, whole panel (summary in words). The format is cell-based. Conditions: whole panel, Gram-positive and Gram-negative strains. Here is the method: To evaluate the antibacterial potential of gold derivatives, […] bacterial strains were selected: E. coli, P. aeruginosa, S. enterica, E. faecalis, L. monocytogenes, S. epidermidis, S. aureus. Dis diffusion assay was performed following Clinical & Laboratory Standards Institute (CLSI) recommendations. Active cultures (0.5 McFarland) from all strains were spread onto Mueller–Hinton Agar (MHA, Oxoid, Basingstoke, UK) and disks impregnated with 10 µL of each gold complex or control (DMSO for negative control, phenol for positive control) were placed. Plates were and incubated for 22 h ± 2 h at 37 °C ± 1 °C and then the diameter of the inhibition zone was determined.
Given that NHC-gold derivatives might display antibacterial activity, we evaluated the antibacterial effect of the complexes toward a panel of Gram-positive and Gram-negative strains using the disk diffusion method. The selected strains are human pathogen or commensal bacteria and the results are summarized on Table 1.

Assay [3] deals with Caco-2 cells. In words: Intracellular ROS levels. The format is cell-based, Human. Conditions: Caco-2 cells, 10, 20 and 40 μM, 1 h incubation; p > 0.05. Here is the method:
Caco-2 cells were grown in 96-well plates (4000 cells/well) and incubated overnight at 5% CO2 and 37 °C. Then, cells were exposed to the required concentration of gold complex for 1 h and total intracellular ROS levels determination was performed as previously described by Sanchez-de-Diego et al..

The target of assay [4] is thioredoxin reductase (TrxR) (Escherichia coli, UniProt P0A9P4). Particulars: E. coli cell lysates incubated with complex. Here is the method:
(§1) For sample preparation, E. coli were lysated by sonication. After ultrasonic homogenization, the lysate was centrifuged 1 min at 13,000 rpm and the pellet was resuspended in extraction buffer. […] Both extraction and reaction buffer consisted of 10 mM Tris-HCl, 1 mM EDTA, 100 mM NaCl and protease inhibitor.

The subject of assay [5] is Caco-2 cells. As to the kind of experiment: MTT antiproliferative assay. Particulars: Caco-2 cell line, 72 h incubation, mean ± SE. The format is cell-based, Human. Here is the method: Human colorectal adenocarcinoma Caco-2 cells were kindly provided by Dr. Edith Brot-Laroche (Universite Pierre et Marie Curie-Paris 6 UMR S872, Les Cordeliers, France) and were maintained in a humidified atmosphere of 5% CO2 at 37 °C in Dulbecco’s Modified Eagles medium (DMEM) (Gibco Invitrogen, Paisley, UK) supplemented with 20% fetal bovine serum, 1% non-essential amino acids, 1% penicillin (1000 U/mL), 1% streptomycin ([…]) and 1% amphotericin (250 U/mL). For treatment, gold complexes were initially dissolved in DMSO to a concentration of 20 mM and then diluted on cell culture without fetal bovine serum to the required work concentrations, which was added 24 h post-seeding. Then, cells were incubated at 37 °C for the required time for each assay.
Cell viability was determined with the 3-(4,5-dimethyl-2-thiazoyl)-2,5-diphenyltetrazolium bromide (MTT) assay as previously described by Mármol et al.. For IC50 calculation, cells were grown in 96-well plates at a density of 4000 cells per well and incubated overnight at standard culture conditions. Then, cells were exposed 72 h to 0–20 μM of each gold complex and changes in absorbance were converted into percentage of growth inhibition in comparison to negative control (DMSO. Absorbance was measured with SPECTROstar Nano (BMG Labtech).

The target in assay [6] is T2, dihydrofolate reductase (DHFR) (Escherichia coli, UniProt P0ABQ4).
T2 construct: to 0.01–0.03 mg of cell lysate and completed with reaction buffer; endogenous in cells; host or cells: E. coli (lysate)
T2 sequence (P0ABQ4 whole entry): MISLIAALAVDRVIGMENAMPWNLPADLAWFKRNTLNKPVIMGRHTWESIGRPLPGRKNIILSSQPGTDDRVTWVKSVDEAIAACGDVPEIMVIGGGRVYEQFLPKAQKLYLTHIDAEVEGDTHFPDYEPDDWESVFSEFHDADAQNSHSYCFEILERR
In words: DHFR activity assay in E. coli lysates. The format is biochemical. Particulars: E. coli lysates incubated with complex; p < 0.05. Here is the method: as §1

This is an account of results in article PMC9612383, “Biological Activity of NHC-Gold-Alkynyl Complexes Derived from 3-Hydroxyflavones” (Pharmaceutics, 2022).

The structures appear in SMILES notation.

Sequence of thioredoxin reductase (TrxR) (P0A9P4 whole entry): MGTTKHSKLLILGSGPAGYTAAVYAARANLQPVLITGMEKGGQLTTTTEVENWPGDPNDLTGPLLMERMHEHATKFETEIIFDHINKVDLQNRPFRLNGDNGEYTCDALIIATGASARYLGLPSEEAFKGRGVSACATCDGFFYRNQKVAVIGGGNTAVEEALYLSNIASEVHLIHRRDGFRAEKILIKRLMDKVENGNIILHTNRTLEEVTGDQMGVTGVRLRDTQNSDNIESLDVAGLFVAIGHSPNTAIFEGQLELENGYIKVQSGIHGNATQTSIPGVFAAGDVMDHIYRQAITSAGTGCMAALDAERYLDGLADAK

As a reminder, the IC50 is the midpoint of a concentration-inhibition curve. The low end stands for higher potency, the high end for lower potency. For the compound `Cn1cc[n+](C)[c]1[Au-][C]#CCOc1c(-c2ccc(Br)cc2)oc2ccccc2c1=O` [1b, [Au(Lb)(IMe)] (R = Br; IMe = C5H10N2)], in assay [1], the “enzymatic activity of recombinant TrxR” value is on record as “no significant changes”. For the same compound, in the assay on E. coli, the “cell morphology by SEM” value was “rougher surface of bacteria, with the presence of wrinkles and creases”; the “size (length) of bacteria by SEM” value was “shrinking of bacteria, which is concentration dependent”. The “antibacterial effect (in words)” value in assay [2] is “able to interfere with the development of both Gram positive and Gram negative strains”. The “reactive oxygen species (ROS) levels” value in the assay on Caco-2 cells [3] is reported as “no significant changes”. Moreover, in assay [4], the “TrxR activity (percentage respect to control)” value is on record as “did not result in a significative reduction of TrxR activity”. The compound also gave a 50% inhibitory concentration (IC50) with Caco-2 cells [5] of 23 ± 2.42 µM. Besides, the “DHFR activity (percentage respect to control)” value in assay [6] is listed as “significantly decreased DHFR activity”.
